From patent publication US20250361233A1, “Compounds For Activating Serotonin Receptor” (PSYLO PTY LTD, priority 2023, published 2025)

Legend:
Format in all cases: cell-based
5-HT2A receptor = biological target: T1, 5-HT2A receptor (Homo sapiens, UniProt P28223); assay: FLIPR Ca2+ flux functional assay, agonist activity at 5-HT2A; details: stably transfected HEK293 cells
T1 construct: host or cells: HEK293
Procedure: (§1) Functional assays 5-HT2A, 5-HT2B and 5-HT2C Receptors
(§2) Activity at 5-HT2A, 5-HT2B and 5-HT2C receptors was determined using a FLIPR Ca2+ flux assay at WuXi AppTec Co. Ltd. (Hong Kong) Discovery Biology Unit according to their standard protocols. Briefly, stably transfected cells expressing the receptor of interest (HEK293 for 5-HT2A and 5-HT2C; CHO-K1 for 5-HT2B) were grown and plated in a 384 well plate and incubated at 37° C. and 5% CO2 overnight. A 250 mM stock solution of probenecid in FLIPR calcium assay buffer (10 mL) was freshly prepared and combined with a fluorescent dye (Fluo-4 Direct) to give a final assay concentration of 2.5 mM. Reference compounds were 4-fold serially diluted and the screening compounds were 3-fold serially diluted in 100% DMSO for 10 points using Agilent Bravo, and 750 nL was added to a 384 well compound plate using Echo along with 30 μL assay buffer. The fluorescent dye was then added to the assay plate along with assay buffer to a final volume of 40 μL. The cell plate was incubated for 50 min at 37° C. and 5% CO2 and placed into the FLIPR Tetra along with the compound plate. 10 μL of references and compounds were then transferred from the compound plate into the cell plate and the fluorescent signal was read.

5-HT2C receptor = biological target: T2, 5-HT2C receptor (Homo sapiens, UniProt P28335); assay: FLIPR Ca2+ flux functional assay, agonist activity at 5-HT2C; details: stably transfected HEK293 cells
T2 construct: host or cells: HEK293
T2 sequence (P28335 33-458): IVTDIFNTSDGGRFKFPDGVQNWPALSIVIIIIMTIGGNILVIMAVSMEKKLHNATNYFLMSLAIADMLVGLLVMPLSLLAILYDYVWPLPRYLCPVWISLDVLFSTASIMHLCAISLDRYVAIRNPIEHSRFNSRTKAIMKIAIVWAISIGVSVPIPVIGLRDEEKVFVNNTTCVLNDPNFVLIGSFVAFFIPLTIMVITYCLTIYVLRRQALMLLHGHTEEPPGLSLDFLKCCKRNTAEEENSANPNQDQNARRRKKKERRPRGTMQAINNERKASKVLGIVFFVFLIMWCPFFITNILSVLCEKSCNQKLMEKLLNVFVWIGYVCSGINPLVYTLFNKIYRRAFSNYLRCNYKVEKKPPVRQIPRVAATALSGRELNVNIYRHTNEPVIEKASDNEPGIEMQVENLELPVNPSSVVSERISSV
Procedure: as §1, §2

5-HT2B receptor = biological target: T3, 5-HT2B receptor (Homo sapiens, UniProt P41595); assay: 5-HT2B activation in a similar assay at a single 10 μM concentration
T3 construct: host or cells: CHO-K1
T3 sequence (P41595 whole entry): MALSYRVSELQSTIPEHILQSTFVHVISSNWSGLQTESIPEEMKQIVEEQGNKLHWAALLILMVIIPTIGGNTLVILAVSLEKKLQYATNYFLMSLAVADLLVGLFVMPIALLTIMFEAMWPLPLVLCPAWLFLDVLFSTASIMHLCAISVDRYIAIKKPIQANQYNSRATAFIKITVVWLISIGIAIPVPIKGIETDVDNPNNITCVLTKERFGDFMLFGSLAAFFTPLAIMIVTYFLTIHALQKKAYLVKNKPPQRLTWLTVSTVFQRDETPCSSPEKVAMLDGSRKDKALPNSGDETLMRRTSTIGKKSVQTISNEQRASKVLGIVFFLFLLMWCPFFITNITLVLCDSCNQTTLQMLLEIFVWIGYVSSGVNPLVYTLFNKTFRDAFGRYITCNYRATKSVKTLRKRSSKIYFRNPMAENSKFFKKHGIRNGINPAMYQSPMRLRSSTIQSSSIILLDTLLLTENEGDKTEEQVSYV
Procedure: Activation data are provided in a similar assay tested at a single 10 μM concentration.

T1 sequence (P28223 whole entry): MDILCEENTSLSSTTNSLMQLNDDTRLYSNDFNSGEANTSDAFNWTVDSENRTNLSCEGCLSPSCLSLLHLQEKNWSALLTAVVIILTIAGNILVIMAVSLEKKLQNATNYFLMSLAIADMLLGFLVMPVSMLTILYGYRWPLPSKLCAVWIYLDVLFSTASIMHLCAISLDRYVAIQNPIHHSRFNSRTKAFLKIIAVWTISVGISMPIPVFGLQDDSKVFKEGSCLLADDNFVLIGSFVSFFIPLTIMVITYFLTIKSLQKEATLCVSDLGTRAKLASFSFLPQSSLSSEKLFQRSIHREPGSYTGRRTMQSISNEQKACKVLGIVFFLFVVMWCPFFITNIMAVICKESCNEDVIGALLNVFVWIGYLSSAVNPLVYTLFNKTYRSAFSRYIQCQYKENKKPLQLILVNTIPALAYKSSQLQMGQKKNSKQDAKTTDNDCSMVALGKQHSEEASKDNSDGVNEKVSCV

| SMILES | EC50 (5-HT2A receptor) | Emax (5-HT2A receptor) | EC50 (5-HT2C receptor) | Emax (5-HT2C receptor) | 5-HT2B % Activation @ 10 μM (5-HT2B receptor) |
| --- | --- | --- | --- | --- | --- |
| CN(CCc1c[nH]c2ncc(OC(F)(F)F)cc12)C1CC1 [Compound S41, N-methyl-N-(2-(5-(trifluoromethoxy)-1H-pyrrolo[2,3-b]pyridin-3-yl)ethyl)cyclopropanamine] | 822 nM | 41% | > 10000 nM | 0% | 0% |
| CC1CCN1CCc1c[nH]c2ncc(C#N)cc12 (stereo not shown) [Compound S71, 3-(2-(2-methylazetidin-1-yl)ethyl)-1H-pyrrolo[2,3-b]pyridine-5-carbonitrile] | 1140 nM | 81% | > 10000 nM | 9% | 0% |
| COc1cccc(CNCCc2c[nH]c3ncc(Br)cc23)c1 [Compound S63, 2-(5-bromo-1H-pyrrolo[2,3-b]pyridin-3-yl)-N-(3-methoxybenzyl)ethan-1-amine] | 104 nM | 63% | 2970 nM | 48% | 0% |
| Fc1cnc2[nH]cc(CCN3CCCC3)c2c1 [Compound S6, 5-fluoro-3-(2-(pyrrolidin-1-yl)ethyl)-1H-pyrrolo[2,3-b]pyridine] | 37.9 nM | 81% | 1860 nM | 81% | 16% |
| N#Cc1cnc2[nH]cc(CCN3CCCC3)c2c1 [Compound S69, 3-(2-(pyrrolidin-1-yl)ethyl)-1H-pyrrolo[2,3-b]pyridine-5-carbonitrile] | 1470 nM | 86% | > 10000 nM | 0% | 0% |
| Fc1cccc(CNCCc2c[nH]c3ncc(Br)cc23)c1 [Compound S61, 2-(5-bromo-1H-pyrrolo[2,3-b]pyridin-3-yl)-N-(3-fluorobenzyl)ethan-1-amine] | 74.7 nM | 65% | 1920 nM | 73% | 0% |
| COc1cnc2[nH]cc(CCN3CCC3)c2c1 [Compound S45, 3-(2-(azetidin-1-yl)ethyl)-5-methoxy-1H-pyrrolo[2,3-b]pyridine] | 24 nM | 86% | > 10000 nM | 11% | 0% |
| C[C@H]1CCN1CCc1c[nH]c2ncc(F)cc12 [Compound S48, (S)-5-fluoro-3-(2-(2-methylazetidin-1-yl)ethyl)-1H-pyrrolo[2,3-b]pyridine] | 115 nM | 82% | 3960 nM | 44% | 2% |
| CC(C)N(C)CCc1c[nH]c2ncc(C#N)cc12 [Compound S67, 3-(2-(isopropyl(methyl)amino)ethyl)-1H-pyrrolo[2,3-b]pyridine-5-carbonitrile] | 609 nM | 80% | > 10000 nM | 2% | 4% |
| Brc1cnc2[nH]cc(CCN3CCC3)c2c1 [Compound S58, 3-(2-(azetidin-1-yl)ethyl)-5-bromo-1H-pyrrolo[2,3-b]pyridine] | 124 nM | 79% | 231 nM | 67% | 3% |
| COc1cnc2[nH]cc(CCN(C)C3CC3)c2c1 [Compound S44, N-(2-(5-methoxy-1H-pyrrolo[2,3-b]pyridin-3-yl)ethyl)-N-methylcyclopropanamine] | 9.49 nM | 82% | 2830 nM | 45% | 1% |
| CC(C)N(C)CCc1c[nH]c2ncc(Br)cc12 [Compound S55, N-(2-(5-bromo-1H-pyrrolo[2,3-b]pyridin-3-yl)ethyl)-N-methylpropan-2-amine] | 158 nM | 73% | 3590 nM | 34% | 4% |
| COc1cccc(CNCCc2c[nH]c3ncc(C#N)cc23)c1 [Compound S75, 3-(2-((3-methoxybenzyl)amino)ethyl)-1H-pyrrolo[2,3-b]pyridine-5-carbonitrile] | 44.4 nM | 79% | 3620 nM | 46% | 1% |
| CN(CCc1c[nH]c2ncc(F)cc12)C1CC1 [Compound S1, N-(2-(5-fluoro-1H-pyrrolo[2,3-b]pyridin-3-yl)ethyl)-N-methylcyclopropanamine] | 33.7 nM | 82% | 1440 nM | 77% | 2% |
| CN(CCc1c[nH]c2ncc(Cl)cc12)C1CC1 [Compound S42, N-(2-(5-chloro-1H-pyrrolo[2,3-b]pyridin-3-yl)ethyl)-N-methylcyclopropanamine] | 143 nM | 58% | 1100 nM | 75% | 15% |
| CCN(C)CCc1c[nH]c2ncc(Br)cc12 [Compound S54, 2-(5-bromo-1H-pyrrolo[2,3-b]pyridin-3-yl)-N-ethyl-N-methylethan-1-amine] | 223 nM | 69% | > 10000 nM | 19% | 1% |
| COc1cnc2[nH]cc(CCN3CCCCC3)c2c1 [Compound S47, 5-methoxy-3-(2-(piperidin-1-yl)ethyl)-1H-pyrrolo[2,3-b]pyridine] | 673 nM | 65% | > 10000 nM | 8% | 0% |
| Fc1ccccc1CNCCc1c[nH]c2ncc(Br)cc12 [Compound S60, 2-(5-bromo-1H-pyrrolo[2,3-b]pyridin-3-yl)-N-(2-fluorobenzyl)ethan-1-amine] | 285 nM | 66% | 1790 nM | 63% | 0% |
| Brc1cnc2[nH]cc(CCN3CCCC3)c2c1 [Compound S57, 5-bromo-3-(2-(pyrrolidin-1-yl)ethyl)-1H-pyrrolo[2,3-b]pyridine] | 897 nM | 86% | 3480 nM | 62% | 12% |
| N#Cc1cnc2[nH]cc(CCNCc3cccc(F)c3)c2c1 [Compound S73, 3-(2-((3-fluorobenzyl)amino)ethyl)-1H-pyrrolo[2,3-b]pyridine-5-carbonitrile] | 134 nM | 66% | 7430 nM | 43% | 2% |
| CC(C)N(C)CCc1c[nH]c2ncc(Cl)cc12 [Compound S53, N-(2-(5-chloro-1H-pyrrolo[2,3-b]pyridin-3-yl)ethyl)-N-methylpropan-2-amine] | 115 nM | 84% | 2580 nM | 71% | 26% |
| CCN(C)CCc1c[nH]c2ncc(Cl)cc12 [Compound S52, 2-(5-chloro-1H-pyrrolo[2,3-b]pyridin-3-yl)-N-ethyl-N-methylethan-1-amine] | 149 nM | 61% | 1950 nM | 49% | 3% |
| COc1cnc2[nH]cc(CCN3CCCC3)c2c1 [Compound S46, 5-methoxy-3-(2-(pyrrolidin-1-yl)ethyl)-1H-pyrrolo[2,3-b]pyridine] | 47 nM | 91% | 4170 nM | 43% | 3% |
